Assay [1] relates to pERK in MKN1 cells. Description: pERK inhibition, In-Cell Western (LI-COR Odyssey), MKN1 cells. It is filed as cell-based. The conditions noted are these: MKN1 or H358 cells (table does not say which), 0.5-1 hour incubation, read-out: IC50 (nM), pERK inhibition. The method, then:
This Example illustrates that exemplary compounds of the present invention prevent KRas-mediated GTP nucleotide exchange mediated by SOS1 to inhibit KRas activity thereby inhibiting the generation of the downstream effector pERK.
MKN1 cells (15,000/w) or H358 (30,000/w) were seeded in a black clear flat bottom 96-well cell culture plate (Corning, #3904) and incubated at 37° C. overnight. Assay day 1, cells were dosed with compounds of Formula (I) with a 10 μm starting concentration and serially diluted 3× for a total of 9 concentrations. The cells were incubated for approximately 0.5-1 hour with the compounds solubilized in DMSO at 37° C. Cells were immediately fixed by adding 50 μL of 4% formaldehyde to all wells in a fume hood and the plates were incubated for 20 minutes at room temperature. The formaldehyde was discarded from the plates and 150 μL of ice-cold methanol was added to permeabilize the cells for 10 minutes at −20° C. The methanol was discarded from each of the plates and any liquid remaining in the plate by tapping the plate against paper towels. Cells were then blocked with 150 μL of Odyssey blocking buffer (LI-COR Biosciences #927-50010) using 0.05% Tween for 1 hour at room temperature on a shaker. The blocking buffer was discarded and 50 μL of primary antibodies pERK (cell signaling Technology #9101L; Rabbit, 1:500) and GapDH (Millipore #MAB34; Mouse, 1:5000) diluted in Odyssey blocking buffer was added. The plates were incubated overnight at 4° C. on a shaker.
On Assay day 2, the primary antibody solution was removed. Each plate was washed 3× times with 150 μL of 1×PBST (PBS+0.1% Tween 20) and incubated with 50 μL of secondary antibodies: Anti-Rabbit (LI-COR Biosciences #926-32211) and Anti-Mouse (LI-COR Biosciences #68070) at 1:800 dilution in Odyssey blocking buffer with Tween at room temperature on a shaker for 2 hours (protected from light). The secondary antibody solution as removed and each plate was washed with PBST 3× times. Any liquid remaining was discarded and the plate was imaged using the Licor Odyssey machine according to the manufacturer's instruction, using a set focus length at 3 mm and both 800 nm and 700 nm filters. The GAPDH normalized scan values for each well were divided by the average of vehicle wells to get the % of pERK inhibition. The IC50 values were then calculated with the Graph pad Prism software.

For assay [2], the target named is T1, recombinant human SOS1 polypeptide (amino acids 560-1049) (Homo sapiens, UniProt Q07889).
T1 construct: corresponding to amino acids 560-1049, expressed in E. Coli; made in house; host or cells: E. coli
T1 sequence (Q07889 560-1049): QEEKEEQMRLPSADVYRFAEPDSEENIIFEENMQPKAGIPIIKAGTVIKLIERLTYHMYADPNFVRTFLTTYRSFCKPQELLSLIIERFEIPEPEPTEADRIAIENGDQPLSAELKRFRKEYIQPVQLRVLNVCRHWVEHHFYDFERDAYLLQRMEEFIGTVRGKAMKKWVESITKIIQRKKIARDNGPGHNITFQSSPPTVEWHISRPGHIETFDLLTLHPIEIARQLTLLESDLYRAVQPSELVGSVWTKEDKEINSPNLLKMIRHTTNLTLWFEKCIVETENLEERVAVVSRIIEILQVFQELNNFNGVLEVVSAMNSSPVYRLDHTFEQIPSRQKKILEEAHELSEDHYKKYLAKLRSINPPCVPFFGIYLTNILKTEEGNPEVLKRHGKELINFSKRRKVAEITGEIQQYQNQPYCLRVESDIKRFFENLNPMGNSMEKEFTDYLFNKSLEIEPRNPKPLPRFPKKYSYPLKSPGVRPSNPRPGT
Description: HTRF displacement assay: inhibition of labeled tracer binding to SOS1. A general note: In TR-FRET formats the signal depends on donor and acceptor labels being close together.

The mark [3] stands for this setting: Table A, Morrison equation for competitive binding.
The mark [4] stands for this setting: Table A1, Morrison equation for competitive binding.

Structures can show the parent of a compound that is named as a salt. Where two headings read alike, the source gives them in different places.

By IC50 is commonly meant the concentration at which inhibition is half-maximal. A word on the Ki: it is a dissociation constant, usually derived from enzyme kinetics or from competition with a known ligand. Turning to `Cc1c(C#N)cccc1[C@@H](C)Nc1nnc(C)c2cnc(N3C[C@H]4CCCN[C@H]4C3)cc12` (single isomer, unassigned) [Example 6-3], in assay [1] (Homo sapiens, MKN-1, Table B), the IC50 amounted to 73 nM. For the same molecule, the inhibitory constant (Ki) in assay [2] (setting [3]) came out at 0.992 nM. Regarding `Cc1c(C#N)cccc1[C@@H](C)Nc1nnc(C)c2cnc(N3C[C@@H]4CCCN[C@@H]4C3)cc12` (single isomer, unassigned) [Example 6-4], in assay [1] (Homo sapiens, MKN-1, Table B), the IC50 is 194 nM. In assay [2] (setting [3]), the Ki stood at 2.74 nM. On the same counts, the results for `Cc1c(C#N)cccc1[C@@H](C)Nc1nnc(C)c2cnc(N3C[C@H]4CCCN(C)[C@H]4C3)cc12` (single isomer, unassigned) [Example 6-5] are 85.2 nM and 1.12 nM. As for `Cc1c(C#N)cccc1[C@@H](C)Nc1nnc(C)c2cnc(N3C[C@@H]4CCCN(C)[C@@H]4C3)cc12` (single isomer, unassigned) [Example 6-6], in assay [1] (Homo sapiens, MKN-1, Table B), the IC50 is 80.6 nM. Further, the Ki in assay [2] (setting [3]) came out at 1.36 nM. With `Cc1c(C#N)cccc1[C@@H](C)Nc1nnc(C)c2cnc(N3C[C@@H]4[C@H]3CCN4C)cc12` (single isomer, unassigned) [Example 6-8], the IC50 in assay [1] (Table B) worked out at 33.8 nM. For the same molecule, in assay [2] (setting [3]), the Ki turned out to be 0.808 nM. On the same counts, the results for `Cc1c(C#N)cccc1[C@@H](C)Nc1nnc(C)c2cnc(N3C[C@H]4[C@@H]3CCN4C)cc12` (single isomer, unassigned) [Example 6-9] are 69.4 nM and 2.12 nM. Consider `Cc1c(C#N)cccc1[C@@H](C)Nc1nnc(C)c2cnc(N3CC[C@@H]4[C@H]3CN4C)cc12` (single isomer, unassigned) [Example 6-10], for which the IC50 in assay [1] (Homo sapiens, MKN-1, Table B) was found to be 44.4 nM. Moreover, the Ki in assay [2] (setting [3]) worked out at 0.872 nM. As for `Cc1c(C#N)cccc1[C@@H](C)Nc1nnc(C)c2cnc(N3CC[C@H]4[C@@H]3CN4C)cc12` (single isomer, unassigned) [Example 6-11], in assay [1] (Homo sapiens, MKN-1, Table B), the half-maximal inhibitory concentration (IC50) is 199 nM. In assay [2] (setting [3]), the Ki came out at 2.78 nM. As for `Cc1c(C#N)cccc1[C@@H](C)Nc1nnc(C)c2cnc(N3C[C@H]4[C@@H]3CCN4C)cc12` (single isomer, unassigned) [Example 6-12], in assay [1] (Table B), the IC50 came to 13.7 nM. In addition, the Ki in assay [2] (setting [3]) worked out at 0.24 nM. In the case of `Cc1c(C#N)cccc1[C@@H](C)Nc1nnc(C)c2cnc(N3C[C@@H]4[C@H]3CCN4C)cc12` (single isomer, unassigned) [Example 6-13], the IC50 in assay [1] (Table B) was found to be 16.3 nM. The Ki in assay [2] (setting [3]) was found to be 0.615 nM. As for `Cc1c(C#N)cccc1[C@@H](C)Nc1nnc(C)c2cc(F)c(N3C[C@H]4[C@@H]3CCN4C)cc12` (single isomer, unassigned) [Example 9-1], the IC50 in assay [1] (Homo sapiens, MKN-1, Table B) was 15.5 nM. Besides, in assay [2] (setting [3]), the inhibitory constant (Ki) came to 1 nM. On the same counts, the results for `Cc1c(C#N)cccc1[C@@H](C)Nc1nnc(C)c2cc(F)c(N3C[C@@H]4[C@H]3CCN4C)cc12` (single isomer, unassigned) [Example 9-2] are 30 nM and 2 nM.

On to `CCN(c1cc2c(N[C@H](C)c3cccc(C#N)c3C)nnc(C)c2cn1)C1CCN(C)C1` (stereo in doubt) [Example 1-104, 3-((R)-1-((7-(ethyl((S)-1-methylpyrrolidin-3-yl)amino)-4-methylpyrido[3,4-d]pyridazin-1-yl)amino)ethyl)-2-methylbenzonitrile], for which, in assay [1] (Table B), the IC50 was determined as 75.5 nM. The inhibition constant Ki in assay [2] (setting [3]) turned out to be 0.901 nM. As for `Cc1c(C#N)cccc1[C@@H](C)Nc1nnc(C)c2cnc(N3CC(C)(N4CCC4)C3)cc12` [Example 1-1, (R)-2-methyl-3-(1-((4-methyl-7-(3′-methyl-[1,3′-biazetidin]-1′-yl)pyrido[3,4-d]pyridazin-1-yl)amino)ethyl)benzonitrile], the 50% inhibitory concentration (IC50) in assay [1] (Homo sapiens, MKN-1, Table B) turned out to be 104 nM. Besides, in assay [2] (setting [3]), the Ki stood at 1.59 nM. For the molecule `Cc1nnc(N[C@H](C)c2cccc(C(C)(F)F)c2F)c2cc(N3CCN(C)CC3)c(C#N)cc12` [Example 6-21, (R)-1-((1-(3-(1,1-difluoroethyl)-2-fluorophenyl)ethyl)amino)-4-methyl-7-(4-methylpiperazin-1-yl)phthalazine-6-carbonitrile], the Ki in assay [2] (setting [3]) was 1.05 nM. As to `Cc1nnc(N[C@H](C)c2cccc(C(F)F)c2F)c2cc(N3CCN(C)CC3)c(C#N)cc12` [Example 6-22, (R)-1-((1-(3-(difluoromethyl)-2-fluorophenyl)ethyl)amino)-4-methyl-7-(4-methylpiperazin-1-yl)phthalazine-6-carbonitrile], the Ki in assay [2] (setting [3]) worked out at 1.49 nM. For the molecule `Cc1c(C#N)cccc1[C@@H](C)Nc1nnc(C)c2cc(Br)c(N3CCN(C)CC3)cc12` [Example 8-1, (R)-3-(1-((6-bromo-4-methyl-7-(4-methylpiperazin-1-yl)phthalazin-1-yl)amino)ethyl)-2-methylbenzonitrile], the Ki in assay [2] (setting [3]) turned out to be 2.4 nM. For the molecule `Cc1c(C#N)cccc1[C@@H](C)Nc1nnc(CO)c2cnc(N3CCOCC3)cc12` [Example P-201, (R)-3-(1-((4-(hydroxymethyl)-7-morpholinopyrido[3,4-d]pyridazin-1-yl)amino)ethyl)-2-methylbenzonitrile formic acid salt], the Ki in assay [2] (setting [4]) was 6.36 nM. As for `Cc1c(C#N)cccc1[C@@H](C)Nc1nnc(C=O)c2cnc(N3CCOCC3)cc12` [Example P-202, (R)-3-(1-((4-formyl-7-morpholinopyrido[3,4-d]pyridazin-1-yl)amino)ethyl)-2-methylbenzonitrile], the inhibitory constant (Ki) in assay [2] (setting [4]) was found to be 49.7 nM. As for `Cc1c(C#N)cccc1[C@@H](C)Nc1nnc(C)c2cnc(N3CCOC(=O)C3)cc12` [Example P-203, (R)-2-methyl-3-(1-((4-methyl-7-(2-oxomorpholino)pyrido[3,4-d]pyridazin-1-yl)amino)ethyl)benzonitrile], the Ki in assay [2] (setting [4]) turned out to be 26.1 nM. The same measure, in the same setting: under `Cc1c(C#N)cccc1[C@@H](C)Nc1nnc(C)c2cnc(N3CCOCC3=O)cc12` [Example P-204, (R)-2-methyl-3-(1-((4-methyl-7-(3-oxomorpholino)pyrido[3,4-d]pyridazin-1-yl)amino)ethyl)benzonitrile] stands 139 nM; under `Cc1c(C#N)cccc1[C@@H](C)Nc1nnc(C)c2cnc(OCCOCCN3C(=O)CCC(N4C(=O)c5cccc(O)c5C4=O)C3=O)cc12` (stereo partly drawn) [Example P-207, 3-((1R)-1-((7-(2-(2-(3-(4-hydroxy-1,3-dioxoisoindolin-2-yl)-2,6-dioxopiperidin-1-yl)ethoxy)ethoxy)-4-methylpyrido[3,4-d]pyridazin-1-yl)amino)ethyl)-2-methylbenzonitrile], 865 nM. The same measure, in the same setting: under `Cc1c(C#N)cccc1[C@@H](C)Nc1nnc(C)c2cnc(OCCOCCOc3cccc4c3C(=O)N(C3CCC(=O)NC3=O)C4=O)cc12` (stereo partly drawn) [Example P-208, 3-((1R)-1-((7-(2-(2-((2-(2,6-dioxopiperidin-3-yl)-1,3-dioxoisoindolin-4-yl)oxy)ethoxy)ethoxy)-4-methylpyrido[3,4-d]pyridazin-1-yl)amino)ethyl)-2-methylbenzonitrile] stands 427 nM.

For the molecule `Cc1c(C#N)cccc1[C@@H](C)Nc1nnc(C)c2cnc(OCCNC(=O)CCOC34CC5CC(CC(C5)C3)C4)cc12` [Example P-209, 3-(((3s,5s, 7s)-adamantan-1-yl)oxy)-N-(2-((1-(((R)-1-(3-cyano-2-methylphenyl)ethyl)amino)-4-methylpyrido[3,4-d]pyridazin-7-yl)oxy)ethyl)propanamide], the Ki in assay [2] (setting [4]) was 542 nM.

(Values after patent US20250059182A1, “SOS1 INHIBITORS” (Mirati Therapeutics, Inc., priority 2021, published 2025).)
